# How the values were obtained:
# Settings in all cases: 72 h
# [1] = tested on: Calu-3; test: relative viability EC50 (midpoint between 100% and the lowest measured viability); higher = less toxic
# [2] = tested on: Vero E6; test: as above
# [3] = tested on: HepG2; test: as above
# [4] = tested on: Calu-3; test: cell viability relative to DMSO; higher = less toxic
# [5] = tested on: U2OS; test: as above
# [6] = tested on: Vero E6; test: as above
# [7] = tested on: HepG2; test: as above
# [8] = tested on: Caco-2; test: as above
# [9] = tested on: Calu-3; test: drug sensitivity score (DSS) for viability; higher = more toxic; extreme values may be limits of the assay
# [10] = tested on: U2OS; test: as above
# [11] = tested on: Vero E6; test: as above
# [12] = tested on: HepG2; test: as above
# [13] = tested on: Caco-2; test: as above
# [14] = tested on: U2OS; test: relative viability EC50 (midpoint between 100% and the lowest measured viability); higher = less toxic
# [15] = tested on: Caco-2; test: as above
SMILES,relative viability EC50 [1] [µM],relative viability EC50 [2] [µM],relative viability EC50 [3] [µM],cell viability ([4]; 1 nM) [%],cell viability ([4]; 10 nM) [%],cell viability ([4]; 100 nM) [%],cell viability ([4]; 1000 nM) [%],cell viability ([4]; 10000 nM) [%],cell viability ([5]; 1 nM) [%],cell viability ([5]; 10 nM) [%],cell viability ([5]; 100 nM) [%],cell viability ([5]; 1000 nM) [%],cell viability ([5]; 10000 nM) [%],cell viability ([6]; 1 nM) [%],cell viability ([6]; 10 nM) [%],cell viability ([6]; 100 nM) [%],cell viability ([6]; 1000 nM) [%],cell viability ([6]; 10000 nM) [%],cell viability ([7]; 1 nM) [%],cell viability ([7]; 10 nM) [%],cell viability ([7]; 100 nM) [%],cell viability ([7]; 1000 nM) [%],cell viability ([7]; 10000 nM) [%],cell viability ([8]; 1 nM) [%],cell viability ([8]; 10 nM) [%],cell viability ([8]; 100 nM) [%],cell viability ([8]; 1000 nM) [%],cell viability ([8]; 10000 nM) [%],drug sensitivity score [9],drug sensitivity score [10],drug sensitivity score [11],drug sensitivity score [12],drug sensitivity score [13],relative viability EC50 [14] [µM],relative viability EC50 [15] [µM]
Cc1cc(-c2nc(-c3ccc(OC(F)(F)F)cc3)no2)nn1Cc1ccnc(N2CCN(C3CC3)CC2)c1 [BAY-87-2243],> 10,> 10,0.0071,98.5,94.4,92.9,87.7,92,97.3,95.3,81.5,73.5,66.6,95.8,98.8,94.3,91,85.1,93.1,50.4,20.8,17.8,18.7,99.4,99,73.7,74.7,71.1,0.2,6.5,0.4,31.4,8,–,–
N#CCNC(=O)c1ccc(-c2ccnc(Nc3ccc(N4CCOCC4)cc3)n2)cc1 [cyt387],–,–,2.02,–,–,–,–,–,99.9,107,99.4,95.6,36.6,102,100,96.6,94.7,52.5,109,105,101,88.7,21.6,99.5,103,101,103,61.8,–,4.1,3.4,6.2,1.6,2.6,–
Cc1nc2ccc(-n3ncc(C(=O)c4cc5ccccc5[nH]4)c3N)cc2[nH]1,> 10,–,> 10,100,86.9,98.4,87.6,84.7,99,94.5,97.8,84.1,84.3,96.5,96,93.6,89.4,69,94.6,99,87.3,104,76.2,100,94.5,92.9,86.4,89.3,0.7,1.9,2.2,0.7,0.8,> 10,> 10
Nc1nc(NCCc2ccc(O)cc2)nc2nc(-c3ccco3)nn12,> 10,> 10,0.648,96.1,110,97.3,98.2,106,99.5,103,102,103,94.5,95.1,95.3,98.1,94.6,95,109,98.6,103,49.2,32.2,97.2,94.5,103,104,72.5,0,0,0,9.7,0.9,> 10,–
Cc1cc(C)c(CNC(=O)c2cc(-c3ccc(CN4CCOCC4)cc3)cc3c2cnn3C2CCCC2)c(=O)[nH]1,> 10,–,> 10,98,96.9,104,92,96.3,99,94.5,101,94.4,98.7,–,–,–,–,–,108,102,100,97.3,85.3,102,94.2,96.4,91.1,92,0,0,–,0.5,0,> 10,> 10
c1ccc(-c2oc3ncnc(NC[C@@H]4CCCO4)c3c2-c2ccccc2)cc1 [AIM-100],–,> 10,> 10,106,92.2,96.6,97.7,74.7,103,102,105,101,95.5,90.2,98.6,96.6,87.2,95.9,83.4,98.6,99.8,97.4,95.6,115,92.6,96.6,104,71.3,1.3,0,0,0,1,> 10,–
Cc1ccccc1C(=O)Nc1ccc(C(=O)N2CCCC(N(C)C)c3ccccc32)cc1 (centres undefined) [mozavaptan],–,–,3.1,94.9,109,95.6,105,64.9,98.1,102,94.5,98,48.8,100,103,98.3,98.4,51.6,98.2,99.5,93.3,99.5,44.3,97,99.8,88.8,76.6,70.2,1.4,3,2.7,3.1,4.7,2.87,–
Cc1ncc(C)n2nc([C@@H]3C[C@H]3c3nc4c5cccnc5ccn4c3C)nc12 [PDE10-IN-1],> 10,> 10,> 10,106,98,105,114,117,98.6,95.5,100,95.9,97.9,93.5,98.2,99.6,99.3,105,98.7,105,96.1,115,98.1,–,–,–,–,–,0,0,0,0,–,> 10,–
C#CC[C@H](c1nc2cc(Cl)ccc2c(=O)n1Nc1ccccc1)N(CCCN)C(=O)c1cccc(Cl)c1F [ARQ-621],> 10,–,0.929,105,101,104,86.7,78,103,98.9,101,93.4,42.3,102,100,96.2,101,54.9,93.7,100,94.5,62.2,26.6,101,96.6,93.6,81.7,73,2.1,4.2,2.3,8.5,3.1,2.23,–
O=C1c2ccccc2CCC1CNCCc1ccc(O)cc1 (centres undefined) [BE-2254],> 10,–,3.45,106,93.3,95.7,101,96.2,95.8,97.3,100,99.3,95.5,–,–,–,–,–,114,96,96.7,103,39.1,104,100,99.5,104,98,0,0,–,3,0,> 10,> 10
C#Cc1cccc(Nc2ncnc3cc(OCCOC)c(OCCO)cc23)c1 [OSI-420],0.101,–,> 10,115,103,73.8,48.6,47,96.7,99.8,97.6,94.2,85.1,103,105,98.2,79,65.1,110,102,100,104,76.7,106,101,101,86.9,76.6,13.1,0.3,4,0.6,2.3,> 10,> 10
C[C@](O)(COc1ccc(C#N)cc1)C(=O)Nc1ccc(C#N)c(C(F)(F)F)c1 [ostarine],> 10,–,> 10,109,98.9,99.4,95.9,97.9,–,–,–,–,–,–,–,–,–,–,107,107,103,109,92.8,–,–,–,–,–,0,–,–,0,–,–,–
COC(=O)C1=C(C)NC(C)=C(C(=O)OC2CCCN(Cc3ccccc3)C2)C1c1cccc([N+](=O)[O-])c1 (centres undefined) [benidipine],> 10,> 10,> 10,99,98.8,106,102,77.8,100,102,93.8,99.6,81.7,102,101,106,99,104,109,101,105,105,80.2,97.7,108,101,97,64.4,0.6,0.5,0,0.4,2.1,> 10,–
O=C(Nc1cc(Oc2cc(F)c(NC(=O)C3(C(=O)Nc4ccc(F)cc4)CC3)cc2F)ccn1)C1CC1 [altiratinib],> 10,–,0.25,98.5,110,97.1,109,95.5,–,–,–,–,–,–,–,–,–,–,107,103,94.7,35.8,58.5,113,106,104,101,99.3,0,–,–,12.6,0,–,> 10
Cn1c(Nc2ccc(C(F)(F)F)cc2)nc2cc(Oc3ccnc(-c4ncc(C(F)(F)F)[nH]4)c3)ccc21 [RAF265],–,–,0.435,98,91.2,94,70.9,62.2,94.9,102,95.3,87.3,46.5,102,99.7,99.8,77.9,51.6,92.1,94.7,80,44.5,13.2,100,98.3,81.8,66.3,28.8,5.6,4.9,5.4,13.1,8.8,1.59,0.721
Cn1c(=O)c(F)c(Nc2ccc(I)cc2F)c2c(=O)n(C[C@@H](O)CO)cnc21 [TAK-733],0.0323,0.042,0.0047,88.5,74.4,53.3,31.8,24.6,94.5,98.7,85.9,36,10.8,96.9,82.9,62.3,51.6,42.2,88.1,41.2,24.8,19.5,17.2,89.4,84.6,70.7,66.4,58.7,21.1,13.8,15.2,33.3,11.2,0.435,–
